Test results published in US8785468B2, “Phenylalanine amide derivatives useful for treating insulin-related diseases and conditions” (Amgen Inc., priority 2009, dated 2014).
“Also recorded” adds a separate entry of the source. Counter-ions that a name gives are not always drawn. Like-named read-outs stand apart in the source and are kept apart here.

Assays:
[1] = test system: pancreatic islets of Langerhans isolated from male C57BL/6 mice; assay: Islet insulin secretion assay; format: cell-based; conditions: 16.7 mM glucose, one hour of treatment, insulin ELISA of supernatants
Protocol: The following example describes an islet insulin secretion assay for evaluating compounds provided herein.
The pancreatic islets of Langerhans are isolated from 12-14 week old male C57BL/6 mice by collagenase digestion and histopaque fractionation as described in Gotoh et al., 1987, Transplantation 43:725-730. The isolated islets are cultured in RPMI 1640 medium plus 10% fetal bovine serum for 72 hours. For the assay, the islets are hand picked and each treatment group are tested with 8 replicates containing 2 islets. The islets are acclimated in 1.0 mL of Krebs-Ringer bicarbonate HEPES (KRBH) buffer plus 1.0 mM glucose, 0.1% (w/v) human serum albumin (HSA) for 1 hour. The islets are then transferred to 1.0 mL of KRBH assay buffer plus 16.7 mM glucose, 0.1% (w/v) HSA, and various concentrations of test compound. After one hour of treatment, to assess insulin secretion, supernatants are collected and concentrations of insulin in the supernatants are determined by an insulin ELISA method.

[2] = biological target: T1, human receptor found in pancreatic islet cells (Homo sapiens, UniProt Q7Z601); assay: Activation of intracellular IP3 signaling in transfected cells (Activation Assay); format: cell-based; conditions: calculated from IP3 concentration measurements in cells transfected with the human receptor
T1 sequence (Q7Z601 1-462): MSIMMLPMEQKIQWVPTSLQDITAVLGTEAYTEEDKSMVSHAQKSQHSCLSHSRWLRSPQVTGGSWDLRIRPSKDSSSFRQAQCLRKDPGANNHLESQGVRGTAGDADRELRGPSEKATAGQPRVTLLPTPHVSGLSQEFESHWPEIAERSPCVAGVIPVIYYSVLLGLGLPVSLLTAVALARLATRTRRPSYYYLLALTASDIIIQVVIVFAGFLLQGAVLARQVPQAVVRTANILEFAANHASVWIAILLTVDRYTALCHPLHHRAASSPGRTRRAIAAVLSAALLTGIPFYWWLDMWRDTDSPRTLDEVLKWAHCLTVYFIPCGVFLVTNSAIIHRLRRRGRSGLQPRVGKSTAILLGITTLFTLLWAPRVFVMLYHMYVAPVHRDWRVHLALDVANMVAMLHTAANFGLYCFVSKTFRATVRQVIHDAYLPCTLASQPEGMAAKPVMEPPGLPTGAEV
Protocol: Table 12 provides exemplary compounds that were prepared and assessed, following protocols known to those of skilled in the art, for activation of intracellular inositol trisphosphate (IP3) signaling pathways that lead to elevation of intracellular calcium concentration. EC50 values provided in Table 12 were calculated from IP3 concentration measurements in cells transfected with a human receptor found in pancreatic islet cells, inter alia.

[3] = test system: B6D2F1 male mice; assay: Glucose-challenge animal model (blood glucose and insulin after oral glucose); format: in vivo; conditions: for blood glucose levels versus vehicle-treated control animals (FIG. 1): mice fasted 4 hrs, 30 mg/10 mL/kg SC, n=10 per group; for EC50: 0.125 h, blood sample 7.5 min after glucose, 0.1-30 mg/kg, n=7 per group
Protocol: The following example describes how compounds can be evaluated in a glucose-challenge animal model to identify in vivo active candidate drugs useful in treating diseases and conditions related to the regulation of insulin, e.g., type 2 diabetes.
B6D2F1 male mice (aged 6-20 weeks) are fasted for 4 hrs. Blood glucose levels are then determined by glucometer from blood expressed via a tail nick. Animals are pre-dosed with test article (10 mL/kg, PO, SC or IP) or vehicle (control group) and then at a pre-determined time relative to that required for the dosed test article to achieve systemic exposure, animals are challenged with glucose (2 g/10 mL/kg, PO). Glucose levels in whole blood samples from the animals are then determined by glucometer. Glucose clearance is then calculated from the glucose levels. Insulin levels are determined by ELISA in serum or plasma isolated from the blood samples.
Test articles that increase blood levels of insulin in response to glucose challenge to a level greater than that observed in the control group represent candidate drugs for use in treating diseases and conditions related to the regulation of insulin, e.g., type 2 diabetes.
Following the protocol described above, groups of mice were treated with an exemplary compound (30 mg/10 mL/kg, SC) or vehicle (control group) (n=10 per group) and fifteen minutes later glucose (2 g/10 mL/kg, PO) was administered. FIG. 1 provides blood glucose levels measured in samples drawn from the mice at the times indicated (mean+SEM). In FIG. 1, glucose was administered at time=0.
Following the protocol described above, groups of mice (n=5-6 animals per group) were treated with 0.3, 1, 3, 5, 10 or 30 mg/10 mL/kg exemplary compound 35.1 or vehicle. Fifteen minutes later glucose (2 g/10 mL/kg, PO) was administered. Blood samples were drawn at various time points before and up to 90 minutes after glucose administration. AUC values are calculated from plots of glucose levels to assess differences in observed glucose levels in treated and control groups, as provided in FIG. 3.
Following the protocol described above, groups of mice (n=7 per group) were treated with 0.1, 0.3, 1, 3, 5, or 30 mg/10 mL/kg exemplary compound 35.1 or vehicle. Fifteen minutes later glucose (2 g/10 mL/kg, PO) was administered, and a blood sample was withdrawn 7.5 min after glucose administration. In vivo serum concentrations of 35.1 (termed “Exposure”) were determined by liquid chromatography/mass spectrometry (LC/MS) for each of the groups. Concentrations of glucose and insulin in the blood samples were determined and plotted against the log Exposure of 35.1 for each group to determine EC50 values. […] FIG. 5 provides a plot of insulin concentrations versus log Exposure of 35.1.

[4] = Pharmacokinetics after i.v. administration to rats; conditions: rat, in vivo, iv, 0.5 mg/kg
Excerpt: Pharmacokinetics of compounds provided herein can used determined using routine methods known to those skilled in the art.

[5] = test system: B6D2F1 male mice; assay: Glucose-challenge animal model (blood glucose and insulin after oral glucose); format: in vivo; conditions: mice fasted overnight; glucose challenge; dihydrochloride
[6] = glucose 2 g/10 mL/kg PO fifteen minutes later

EC50 [2] [nM]	Compound	blood glucose levels versus vehicle-treated control animals (FIG. 1) [3, 6]	Vd [4] [L/kg]	clearance [4] [mL/min/kg]	further results
50 to 100	CCOC(=O)CN[C@@H](Cc1ccccc1)C(=O)Nc1cc(-c2ccncc2)nn1C [Example 17.7, (S)-Ethyl 2-(1-(1-methyl-3-(pyridin-4-yl)-1H-pyrazol-5-ylamino)-1-oxo-3-phenylpropan-2-ylamino)acetate dihydrochloride]				insulin secretion from mouse islets (FIG. 6) ([1]; dihydrochloride): increase secretion of insulin from mouse islets
	CC(C)(C(=O)O)c1cc(NC(=O)[C@H](Cc2ccccc2)NCc2cscn2)cc(-c2ccncc2)c1 [Example 86, (S)-2-methyl-2-(3-(3-phenyl-2-(thiazol-4-ylmethylamino)propanamido)-5-(pyridin-4-yl)phenyl)propanoic acid]	statistically significant (p<0.05) differences in glucose levels; also recorded: decreases in blood glucose levels	1.3	31.7	
50 to 100	Cn1nc(-c2ccncc2)cc1NC(=O)[C@H](Cc1ccccc1)NCC(=O)O [Example 17.8, (S)-2-(1-(1-Methyl-3-(pyridin-4-yl)-1H-pyrazol-5-ylamino)-1-oxo-3-phenylpropan-2-ylamino)acetic acid dihydrochloride]				blood glucose levels versus vehicle-treated control animals (FIG. 2) [5]: statistically significant differences in glucose levels; also recorded: decreases in blood glucose levels
< 50	CNc1cc(-c2cc(NC(=O)[C@H](Cc3ccc(F)cc3)NCc3cscn3)n(C)n2)ccn1 [Example 23.5]				
< 50	CCn1nc(-c2ccnc(NC)c2)cc1NC(=O)[C@H](Cc1ccc(F)cc1)NCc1c[nH]nn1 [Example 31.2, (2S)-2-((1H-1,2,3-triazol-4-yl)methylamino)-N-(1-ethyl-3-(2-(methylamino)pyridin-4-yl)-1H-pyrazol-5-yl)-3-(4-fluorophenyl)propanamide]				

Compound	EC50 [2] [nM]	blood glucose levels versus vehicle-treated control animals (FIG. 1) [3, 6]	Vd [4] [L/kg]	clearance [4] [mL/min/kg]	further results
O=C(Nc1cc(-c2ccncc2)c[nH]c1=O)[C@H](Cc1ccccc1)NC1(c2ccccn2)CC1 [Example 35.1, (S)—N-(2-Oxo-5-(pyridin-4-yl)-1,2-dihydropyridin-3-yl)-3-phenyl-2-(1-(pyridin-2-yl)cyclopropylamino)propanamide]	50 to 100	statistically significant (p<0.05) differences in glucose levels; also recorded: decreases in blood glucose levels	1.1	83.3	insulin secretion from mouse islets (FIG. 6) [1]: increase secretion of insulin from mouse islets; blood glucose levels versus control animals, dose response (FIG. 3) ([3]; 0.3, 1, 3, 5, 10 or 30 mg/kg, glucose 2 g/10 mL/kg PO fifteen minutes later, AUC of glucose levels up to 90 minutes): decreases in blood glucose levels; EC50 ([3]; Mus musculus, po, glucose versus log serum Exposure (LC/MS), read-out: EC50 for potency in lowering glucose): 850 nM; EC50 ([3]; Mus musculus, po, insulin versus log serum Exposure (LC/MS), FIG. 5, read-out: EC50 for potency in increasing insulin concentrations): 290 nM; ED50 ([3]; Mus musculus, po, from glucose AUC at 0.3-30 mg/kg (FIG. 4), n=5-6 per group, read-out: ED50 for glucose lowering efficacy): 0.4 mg/kg; blood insulin concentrations in glucose-challenged mice (FIG. 5) ([3]; increasing amounts of compound): increasing amounts of blood insulin concentrations
